Results reported in patent publication US9156889B2, “Drug transporter permeating blood-brain barrier, peptide and use thereof” (priority 2011, dated 2015).
Where no end group is shown, it is not given here.

Columns and labels:
[1] = system: poliovirus (Mahoney strain); assay type: binding
[2] = system: poliovirus (Mahoney strain); assay type: binding; remark: listed apart in the source
[3] = system: poliovirus (Mahoney strain); assay type: binding; remark: listed apart in the source
[4] = system: Mouse brain capillary endotherial cells (MBEC) 4
[5] = system: Mouse brain capillary endotherial cells (MBEC) 4; remark: listed apart in the source

**Q.** Which “binding to poliovirus: band in western blotting after purification” value [1] does the source give for “GST-mTfR1 (TQFPPSQSS; not fully specified (N-terminus))” here?
**A.** The value was “band was similarly detected”.

**Q.** With “SEQ ID NO: 6 (TQFPPSRSS; listed as Homo sapiens)” as the substance, how does the “binding to poliovirus (western blotting after purification)” value [2] read?
**A.** Its value is “directly involved with the binding to poliovirus”.

**Q.** How did the “binding to poliovirus (western blotting after purification)” value [2] turn out when “SEQ ID NO: 7 (TQFPPVASS; listed as Homo sapiens)” was run?
**A.** Its value is “directly involved with the binding to poliovirus”.

**Q.** How did the “binding to poliovirus (western blotting after purification)” value [2] turn out when “SEQ ID NO: 8 (TQFPPVESS; listed as Mus musculus)” was run?
**A.** Its value is “directly involved with the binding to poliovirus”.

**Q.** Which “binding to poliovirus: bands in western blotting after purification” value [3] does the source give for Strep-mTfR1 here?
**A.** Its value is “bands were detected”.

**Q.** And the “binding to poliovirus: band in western blotting after purification” value [1]?
**A.** Its value is “band was detected”.

**Q.** For dextran, which “PS value (permeation rate, permeation activity)” value [4] is on record?
**A.** Its value is 0.20.

**Q.** For fluorescence-labeled transferrin, which PS value [5] is on record?
**A.** The PS value was 0.33.

**Q.** transferrin was tested. Which “effect on the permeation of poliovirus through the blood-brain barrier” value [4] did it give?
**A.** The value was “inhibits the permeation of poliovirus”.
